Source: patent US7371769B2, “Tetrahydropyridin-4-yl indoles with a combination of affinity for dopamine-D2 receptors and serotonin reuptake sites” (Solvay Pharmaceuticals B.V., priority 2004, dated 2008)
Structures can show the parent of a compound that is named as a salt.

Legend:
dopamine-D2 receptors = molecular target: T1, dopamine-D2 receptors (Rattus norvegicus, UniProt P61169); test: In vitro affinity for dopamine-D2 receptors ([3H]-spiroperidol receptor binding assay); conditions: read-out: Dopamine-D2 pKi (converted)
T1 construct: labels dopamine receptors in rat pituitary and brain; from tissue; host or cells: rat pituitary / brain (from the title of the cited method only)
Protocol: In vitro Affinity for Dopamine-D2 Receptors
Affinity of the compounds for dopamine-D2 receptors was determined using the receptor binding assay described by I. Creese, R. Schneider and S. H. Snyder: “[^3H]-Spiroperidol labels dopamine receptors in rat pituitary and brain”, Eur. J. Pharmacol., 46, 377-381,1977.
(§1) The affinity of the compounds of the invention for dopamine-D2 receptors and serotonine reuptake sites was determined as described above. From the binding affinity measured for a given compound of formula (1), one can estimate a theoretical lowest effective dose. At a concentration of the compound equal to twice the measured Ki-value, 100% of the receptors likely will be occupied by the compound. Converting that concentration to mg of compound per kg of patient yields a theoretical lowest effective dose, assuming ideal bioavailability. Pharmacokinetic, pharmacodynamic, and other considerations may alter the dose actually administered to a higher or lower value. The dosage expediently administered is 0.001-1000 mg/kg, preferably 0.1-100 mg/kg of patient's bodyweight.

serotonin reuptake sites = molecular target: T2, serotonin reuptake sites (Rattus norvegicus, UniProt P31652); test: In vitro affinity for serotonin reuptake sites ([3H]-paroxetine binding assay); conditions: read-out: 5-HT reuptake pKi (converted)
T2 construct: from tissue; host or cells: rat cortical membranes (from the title of the cited method only)
Protocol: In vitro Affinity for Serotonin Reuptake Sites
Affinity of the compounds for serotonin reuptake sites was determined using the receptor binding assay described by E. Habert et al.,: “Characterisation of [^3H]-paroxetine binding to rat cortical membranes”, Eur. J. Pharmacol., 118, 107-114, 1985.
as §1

T1 sequence (P61169 whole entry): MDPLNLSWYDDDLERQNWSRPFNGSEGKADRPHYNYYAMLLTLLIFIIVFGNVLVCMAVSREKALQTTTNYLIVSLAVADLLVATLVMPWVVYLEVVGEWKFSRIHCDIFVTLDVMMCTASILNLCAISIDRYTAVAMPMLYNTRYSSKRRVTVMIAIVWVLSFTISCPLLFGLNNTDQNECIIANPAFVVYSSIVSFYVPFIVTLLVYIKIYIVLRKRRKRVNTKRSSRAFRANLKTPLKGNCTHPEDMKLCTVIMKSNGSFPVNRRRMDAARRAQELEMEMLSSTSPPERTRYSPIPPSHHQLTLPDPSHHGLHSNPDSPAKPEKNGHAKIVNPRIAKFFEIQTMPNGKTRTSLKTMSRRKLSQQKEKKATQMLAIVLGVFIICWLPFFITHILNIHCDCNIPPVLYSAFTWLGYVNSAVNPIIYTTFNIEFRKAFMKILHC
T2 sequence (P31652 whole entry): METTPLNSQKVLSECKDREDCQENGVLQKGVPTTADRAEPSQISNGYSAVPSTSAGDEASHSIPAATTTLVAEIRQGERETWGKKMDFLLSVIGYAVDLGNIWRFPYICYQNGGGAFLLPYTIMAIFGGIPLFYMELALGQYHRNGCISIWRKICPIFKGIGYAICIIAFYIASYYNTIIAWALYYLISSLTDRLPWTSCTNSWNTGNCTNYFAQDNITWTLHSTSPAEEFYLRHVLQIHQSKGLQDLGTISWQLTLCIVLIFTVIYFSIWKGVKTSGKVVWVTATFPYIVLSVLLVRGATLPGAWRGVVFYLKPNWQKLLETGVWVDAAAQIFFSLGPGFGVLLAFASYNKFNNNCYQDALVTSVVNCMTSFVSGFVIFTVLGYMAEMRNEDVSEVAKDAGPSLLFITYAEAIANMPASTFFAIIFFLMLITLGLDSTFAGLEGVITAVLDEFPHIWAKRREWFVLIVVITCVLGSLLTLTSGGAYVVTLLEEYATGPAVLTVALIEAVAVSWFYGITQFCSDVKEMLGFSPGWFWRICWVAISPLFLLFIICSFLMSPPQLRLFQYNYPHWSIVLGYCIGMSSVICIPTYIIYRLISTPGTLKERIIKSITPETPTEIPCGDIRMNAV

Structure (SMILES)	melting point	Ki (dopamine-D2 receptors) [nM]	Ki (serotonin reuptake sites) [nM]
CSc1nc(C)c(CCN2CC=C(c3c[nH]c4ccc(F)cc34)CC2)c(=O)n1C (as salt: salt) [Compound 19]	229 °C (dec.)	–	–
Cc1ncn(C)c(=O)c1CCN1CC=C(c2c[nH]c3ccc(F)cc23)CC1 [Compound 33]	–	50.1	3.16
Cc1nc2c(C)cccn2c(=O)c1CCN1CC=C(c2c[nH]c3ccccc23)CC1 [Compound 22, 3-[2-[4-(1H-indol-3-yl)-1,2,3,6-tetrahydropyridin-1-yl]-ethyl]-2,9-dimethyl-4H-pyrido[1,2-a]pyrimidin-4-one]	–	7.94	1.58
COc1nc(C)c(CCN2CC=C(c3c[nH]c4ccccc34)CC2)c(=O)n1C [Compound 18, 5-[2-[4-(1H-indol-3-yl)-1,2,3,6-tetrahydropyridin-1-yl]ethyl]-2-methoxy-3,6-dimethyl-3H-pyrimidin-4-one]	–	31.6	0.794
CSc1nc(C)c(CCN2CC=C(c3c[nH]c4ccccc34)CC2)c(=O)[nH]1 [Compound 14]	–	100	50.1
Cc1nc2n(c(=O)c1CCN1CC=C(c3c[nH]c4ccccc34)CC1)CCS2 [Compound 10]	–	15.8	1.58
Cc1nc2ccccn2c(=O)c1CCN1CC=C(c2c[nH]c3ccc(F)cc23)CC1 [Compound 7]	–	15.8	0.316
CSc1nc(C)c(CCN2CC=C(c3c[nH]c4ccccc34)CC2)c(=O)n1C (as salt: salt)	245 to 246 °C	–	–
Cc1nc2c(C)cccn2c(=O)c1CCN1CC=C(c2c[nH]c3ccccc23)CC1 (as salt: salt) [Compound 22, 3-[2-[4-(1H-indol-3-yl)-1,2,3,6-tetrahydropyridin-1-yl]-ethyl]-2,9-dimethyl-4H-pyrido[1,2-a]pyrimidin-4-one]	242 to 246 °C	–	–
COc1nc(C)c(CCN2CC=C(c3c[nH]c4ccccc34)CC2)c(=O)n1C (as salt: HCl) [Compound 18, 5-[2-[4-(1H-indol-3-yl)-1,2,3,6-tetrahydropyridin-1-yl]ethyl]-2-methoxy-3,6-dimethyl-3H-pyrimidin-4-one]	209 to 211 °C	–	–
Cc1nc2cc(-c3ccccc3)ccn2c(=O)c1CCN1CC=C(c2c[nH]c3ccccc23)CC1 (as salt: salt) [Compound 27]	211 to 224 °C	–	–
Cc1nc2c(C)cccn2c(=O)c1CCN1CC=C(c2c[nH]c3ccc(F)cc23)CC1 (as salt: salt)	229 to 230 °C	–	–
Cc1nc2ccccn2c(=O)c1CCN1CC=C(c2c[nH]c3ccc(F)cc23)CC1 (as salt: salt) [Compound 7]	226 to 227 °C (dec.)	–	–
CCc1ccn2c(=O)c(CCN3CC=C(c4c[nH]c5ccc(F)cc45)CC3)c(C)nc2c1 (as salt: salt) [Compound 24]	198 to 201 °C	–	–
CSc1nc(C)c(CCN2CC=C(c3cn(C)c4ccccc34)CC2)c(=O)n1C [Compound 20]	–	100	7.94
Cc1ccn2c(=O)c(CCN3CC=C(c4c[nH]c5ccccc45)CC3)c(C)nc2c1 [Compound 15]	–	7.94	3.98
Cc1ccn2c(=O)c(CCN3CC=C(c4c[nH]c5ccc(F)cc45)CC3)c(C)nc2c1 [Compound 21]	–	31.6	0.158
Cc1ncn(C)c(=O)c1CCN1CC=C(c2c[nH]c3ccc(F)cc23)CC1 (as salt: salt) [Compound 33]	234 to 235 °C (dec.)	–	–
CSc1nc(C)c(CCN2CC=C(c3c[nH]c4ccc(F)cc34)CC2)c(=O)n1C [Compound 19]	–	6.31	25.1
CCc1ccn2c(=O)c(CCN3CC=C(c4c[nH]c5ccc(F)cc45)CC3)c(C)nc2c1 [Compound 24]	–	10	7.94
Cc1nc2ccccn2c(=O)c1CCN1CC=C(c2c[nH]c3ccccc23)CC1 (as salt: HCl) [Compound 1]	205 °C (dec.)	–	–
Cc1nc2cc(-c3ccccc3)ccn2c(=O)c1CCN1CC=C(c2c[nH]c3ccccc23)CC1 [Compound 27]	–	63.1	0.316
Cc1ccn2c(=O)c(CCN3CC=C(c4c[nH]c5ccccc45)CC3)c(C)nc2c1 (as salt: HCl) [Compound 15]	261 to 264 °C	–	–
Cc1nc2sccn2c(=O)c1CCN1CC=C(c2c[nH]c3ccccc23)CC1 [Compound 11]	–	10	2.51
Cc1nc2ccccn2c(=O)c1CCN1CC=C(c2c[nH]c3ccccc23)CC1 [Compound 1]	–	20	1.58
